One assay has as its system HT2-19 cells. The assay can be described thus: Apoptosis and cell cycle in HT2-19 cells with conditional inactivation of p34^cdc2. The assay is classed as cell-based. Particulars: taxol 0.2 μM. From the text:
Cell Cultures and Antibodies: Breast carcinoma MCF-7, prostate carcinoma PC3, and cervical carcinoma HeLa cells (American Type Culture Collection, Manassas, Va.) were maintained in culture according to the supplier's recommendations. HT2-19 cells with conditional inactivation of the p34^cdc2 gene were described previously (J. E. Itzhaki et al. (1997) Nat. Gen. 15: 258-265). In this cell line, removal of IPTG from the culture medium results in inactivation of the second p34^cdc2 allele (J. E. Itzhaki et al. (1997) Nat. Gen. 15: 258-265). For spindle checkpoint activation, the various cell types were treated with taxol (0.2-2 μM, Sigma Chemical Co., St. Louis, Mo.), vincristine (100 nM, Sigma) or cisplatin (3 μM, Sigma) for 16 h at 37° C. For genetic ablation of p34^cdc2, HT2-19 cells were washed and cultivated in the absence of IPTG for 48-72 h before analysis of apoptosis (see below) or expression of survivin or p34^cdc2, by Western blotting. In some experiments, taxol (0.2 μM) was added to HT2-19 cells simultaneously with the withdrawal of IPTG, and cells were processed as described above. […] For viral transduction, HT2-19 cells in the absence of IPTG were infected with pAd-GFP or pAd-Survivin at multiplicity of infection (m.o.i.) of 50, and analyzed after a 48-72 h culture for changes in cell cycle progression and apoptosis. […]

The test system of assay [1] is p34^cdc2 kinase activity (MPM-2 epitope) in HeLa cells. The assay can be described thus: MPM-2 mitotic phosphoepitope expression (p34^cdc2 kinase activity) in HeLa cells. The assay is classed as cell-based, human. Particulars: HeLa; taxol 0.2 μM, sustained for a 32-h culture.
The test system of assay [2] is p34^cdc2 kinase activity (MPM-2 epitope) in MCF-7 cells. Briefly: MPM-2 mitotic phosphoepitope expression (p34^cdc2 kinase activity) in MCF-7 cells. The assay is classed as cell-based, human. How it is done: MPM-2 Mitotic Phosphoepitope Expression: For detection of mitotic phosphoproteins (D. D. Vandre et al. (1989) J. Cell Sci. 94: 245-58), MCF-7 cells (1-2×10^5 cells/60 mm dish) were treated with taxol (2 μM), adriamycin (100 nM), 50 or 300 J/m^2 UVB irradiation and cultured for 0, 8, 16, 24 or 36 h at 37° C. Cells were fixed in 70% ethanol, labeled with MPM-2 antibody (6 μg/ml) followed by addition of goat anti-mouse FITC (Boehringer Mannheim) for 1 h at 22° C. in the presence of 5 μg/ml propidium iodide (PI) containing 50 μg/ml RNase A. Samples were analyzed on a FACScan (Becton Dickinson, Mountain View, Calif.), using CellQuest software.
MPM-2 Mitotic Phosphoepitope Expression: For detection of mitotic phosphoproteins (D. D. Vandre et al. (1989) J. Cell Sci. 94: 245-258), MCF-7 cells (1-2×10^5 cells/60 mm dish) were treated with taxol (0.2 μM), or vincristine (100 nM) for increasing time intervals (8-36 h) at 37° C. Cells were fixed in 70% ethanol, labeled with MPM-2 antibody (6 μg/ml; Upstate Biotechnology, Lake Placid, N.Y.) followed by addition of goat anti-mouse FITC (Boehringer Mannheim) for 1 h at 22° C. in the presence of 5 μg/ml propidium iodide containing 50 μg/ml RNAse A. Samples were analyzed on a FACScan (Becton Dickinson, Mountain View, Calif.), using CellQuest software. Data are expressed as %MPM-2 positive cells in the entire population.

The subject of another assay is survivin promoter. Briefly: Survivin promoter-luciferase reporter expression in MCF-7 cells. The assay is classed as cell-based, human. As to conditions: taxol 2 μM, all time intervals examined. The method, then:
Luciferase activity was determined after 0-24 h incubation at 37° C. on a Lumat luminometer (LB9510), and normalized to β-galactosidase activity used as an internal control.
Luciferase values were normalized to β-galactosidase expression.

The next assay has as its system MCF-7 tumors. The assay can be described thus: Breast cancer xenograft model (Example 8). The assay is classed as in vivo, CB17 SCID/beige mice. Particulars: taxol alone 2.5 or 5 mg/kg, Purvalanol A alone 20 mg/kg, i.p. The method, then: Breast Cancer Xenograft Model: All experiments involving animals were approved by the institutional animal cure and use committee. Six- to eight-week old female CB17 SCID/beige mice (Taconic Farms, Germantown, N.Y.) were injected s.c. into the flanks with 2.5×10^6 exponentially growing MCF-7 cells in 250 μl of sterile PBS, pH 7.4. […] Animals were injected i.p. with taxol alone (2.5 or 5 mg/kg), Purvalanol A alone (20 mg/kg) or the sequential combination of taxol-Purvalanol A for two consecutive days each divided by a day with no treatment. For single agent treatment, vehicle was given in place of taxol or Purvalanol A with the same schedule. Each complete cycle was separated by 2 d without treatment. Tumor volume was measured in the three dimensions with a caliper. Animals with tumor burden >3000 mm^3 were sacrificed (Survival).
Statistical Analysis: All in vitro experiments were repeated at least three times. […] The survival curves were compared using the log-rank test. This test generates a P value testing the null hypothesis that the survival curves are identical in the overall populations.

The subject of another assay is caspase-9. Briefly: Caspase-9 processing by Western blotting in HeLa cells. Particulars: taxol 0.2 μM, Purvalanol A 20 μM or sequential combination, 16 h. A general note: A western blot detects proteins with antibodies after separation by electrophoresis.

Regarding `CC(=O)O[C@H]1C(=O)[C@@]2(C)[C@H]([C@H](OC(=O)c3ccccc3)[C@]3(O)C[C@H](OC(=O)[C@H](O)[C@@H](NC(=O)c4ccccc4)c4ccccc4)C(C)=C1C3(C)C)[C@]1(OC(C)=O)CO[C@@H]1C[C@@H]2O` [taxol, Paclitaxel], the cell cycle arrest result with HT2-19 cells (HT2-19, p34^cdc2 +/− (IPTG present)) is listed as “homogeneous mitotic arrest”. Further, the “apoptosis vs untreated IPTG− cultures” value with HT2-19 cells (IPTG− HT2-19 cells (p34^cdc2 −/−)) was “considerably increased apoptosis”. Further, in assay [1], the “p34^cdc2 kinase activity” value is reported as “elevated p34^cdc2 kinase activity”. Moreover, the MPM-2 expression entry in assay [2] (taxol 2 μM (Example 7)) is “elevated MPM-2 expression”. Also, in assay [2] (taxol 0.2-2 μM (Example 8)), the “p34^cdc2 kinase activity (MPM-2 phosphoepitope expression)” value is “elevated p34^cdc2 kinase activity”. Moreover, the “survivin gene expression (promoter-luciferase)” value in the assay on survivin promoter was “significantly inhibited survivin gene expression”. For the same compound, in the assay with MCF-7 tumors, the “kinetics of tumor growth” value is recorded as “did not affect the kinetics of tumor growth”. The caspase-9 processing result in the assay on caspase-9 is listed as “did not result in significant caspase-9 cleavage”.

The values above are taken from patent US6949558B2, “Enhancement of taxane-based chemotherapy by a CDK1 antagonist” (Yale University, priority 2001, dated 2005).
